From the NIST ThermoML archive (doi:10.1016/j.tca.2015.01.017)
Numbers after ± are expanded uncertainties.

Key:
[1] = DTA; for Normal melting temperature: Crystal 1
[2] = Molar enthalpy of transition or fusion; details: DSC

Compound: Clc1c(Cl)c(Cl)c(Cl)c(Cl)c1Cl [hexachlorobenzene]
- Normal melting temperature [1]: 231 ± 0.5 °C
- Molar enthalpy of transition or fusion ([2]; Crystal): 5.72 ± 0.17 kcal/mol

Compound: Oc1c(Cl)c(Cl)c(Cl)c(Cl)c1Cl [pentachlorophenol]
- Normal melting temperature [1]: 191.7 ± 0.5 °C
- Triple point temperature ([1]; Crystal 2): 441.6 ± 0.5 K
- Triple point temperature ([1]; Crystal 3): 340.2 ± 0.5 K
- Triple point temperature ([1]; Crystal 4): 287.4 ± 0.5 K
- Molar enthalpy of transition or fusion ([2]; Crystal 1): 3.68 ± 0.122 kcal/mol
- Molar enthalpy of transition or fusion ([2]; Crystal 3): 2.15 ± 0.0837 kcal/mol
